Patent publication US20030207811A1, “Method of treating retinopathy of prematurity using somatostatin analogs” (priority 2002, published 2003)
“Also recorded” adds a separate entry of the source. Bridge positions count the residues as written; N and C are the ends. Square brackets hold non-standard residues; d marks the D form. Peptide text beside a SMILES is read from it.

Tests used:
[1] = tested on: oxygen induced retinopathy; experiment: Oxygen induced retinopathy in neonatal mice, retinal scoring of fluorescein perfused whole mounts; format: in vivo, C57BL6 mice; conditions: for retinal neovascularization: mouse model of oxygen induced retinopathy; for median total retinopathy score / median total retinopathy score [median(25th, 75th quartile)]: oxygen reared; for median total retinopathy score [median(25th, 75th quartile)]: octreotide 20 μg kg^−1 bid s.c. P12-P16
Experimental: (§1) This protocol was approved by the Georgetown University Animal Care and Use committee and adhered to the Association for Research in Vision and Ophthalmology Statement for the Use of Animals in Ophthalmic and Vision Research. C57BL6 mice were obtained from Taconic Laboratories (Germantown, N.Y.). Neonatal mice were placed in an infant incubator with their nursing mother with 75% oxygen at P7 and remained in oxygen until removal to room air at P12 (Smith et al., 1994 Invest. Ophthalmol. Vis. Sci. 35, 101-11). Oxygen was delivered at 75±2%, measured with an oxygen analyser (Hudson Ventonics, Temecula, Calif., U.S.A.), and checked at least twice daily. Individual litters were either oxygen or room air reared. Within litters, differential treatment was performed including no treatment, octreotide, Woc4D, and sham injection. Animals were treated with injections for 5 days from P12 to P16. Animal killing was performed using a lethal dose of pentobarbital (120 mg/kg i.p.). Animals were perfused with fluorescein conjugated dextran as previously described (D'Amato et al., 1993, Microvasc. Res. 46, 135-42) and retinopathy was assessed by a retinal scoring system shown in Table I.
It was received and used as the acetate salt. Octreotide acetate was purchased from Polypeptide Laboratories. […] The analogs were dissolved in 33 mM acetate buffer (pH 5) with 135 mM NaCl. Sham injections were performed with that vehicle.
Retinopathy scores were evaluated by the Kruskal-Wallis test for the overall group and by the Mann-Whitney test to determine differences between groups. Animals weights and GH expression were evaluated using Student's t-test. Statistical significance was determined at the P<0.05 level.

[2] = tested on: pituitary growth hormone (GH) mRNA; experiment: Pituitary growth hormone mRNA expression by RT-PCR; format: in vivo, C57BL6 mice
Experimental: RNA was extracted using TRIzol reagent (Life Technologies, Rockville, Md., U.S.A.) as described by the manufacturer and reverse transcriptase polymerase chain reaction (RT-PCR) was performed. Ten μg of RNA and 2 μM oligo(dT) 16 (total volume 22 μl) were heated at 68° C. for 2 min and cooled on ice. […] The mixture was incubated at 42° C. for 1 hour, then 99° C. for 5 min. The resultant cDNA was diluted with 100 μl of water and stored at -20° C. until PCR was performed. […] The mixture was incubated for 4 min at 94° C., followed by 28 cycles of 45 s at 94° C., 45 s at 58° C., and 45 s at 72° C., followed by 7 min at 72° C., in a PCR apparatus (model 2400, Perkin Elmer). To verify equal amounts of RNA were used in the PCR reaction and to verify uniform amplification process, β-actin mRNA was also amplified from the sample as an internal control. […] A 100 bp DNA ladder was used as a size marker. The number of cycles versus intensity of the PCR band was evaluated to determine the optimum number of cycles to be in the linear range. […] Retinopathy scores were evaluated by the Kruskal-Wallis test for the overall group and by the Mann-Whitney test to determine differences between groups. Animals weights and GH expression were evaluated using Student's t-test. Statistical significance was determined at the P<0.05 level.

[3] = Growth as measured by animal weight; format: in vivo, C57BL6 mice; conditions: Woc4D or octreotide treatment P12-P16
Experimental: as §1, with “Animal killing was performed using a lethal dose of pentobarbital (120 mg/kg i.p.).” left out, “I. […]” for “I.”
Retinopathy scores were evaluated by the Kruskal-Wallis test for the overall group and by the Mann-Whitney test to determine differences between groups. Animals weights and GH expression were evaluated using Student's t-test. Statistical significance was determined at the P<0.05 level. […]

SSTR2 [4] = target: T1, SSTR2 (Homo sapiens, UniProt P30874); conditions: agonist analog; cited from earlier work
T1 sequence (P30874 whole entry, species assumed): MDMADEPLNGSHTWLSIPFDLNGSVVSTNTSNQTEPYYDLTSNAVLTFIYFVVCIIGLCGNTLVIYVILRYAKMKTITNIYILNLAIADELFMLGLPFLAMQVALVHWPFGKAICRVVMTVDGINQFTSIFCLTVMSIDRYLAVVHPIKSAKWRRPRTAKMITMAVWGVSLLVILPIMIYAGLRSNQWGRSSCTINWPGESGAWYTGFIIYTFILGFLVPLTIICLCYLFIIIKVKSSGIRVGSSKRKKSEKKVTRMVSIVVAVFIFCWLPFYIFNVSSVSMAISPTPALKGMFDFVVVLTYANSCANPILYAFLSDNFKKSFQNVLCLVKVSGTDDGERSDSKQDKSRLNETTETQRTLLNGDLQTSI

SSTR2 [5] = target: T1, SSTR2; conditions: cited from earlier work

## C[C@@H](O)[C@H](NC(=O)[C@@H]1CSSC[C@H](NC(=O)[C@@H](Cc2ccc(O)cc2)NC(=O)[C@@H](Cc2ccc(O)cc2)NC(=O)[C@@H](Cc2ccc(O)cc2)NC(=O)[C@H](N)Cc2ccc(O)cc2)C(=O)N[C@@H](Cc2ccccc2)C(=O)N[C@H](Cc2c[nH]c3ccccc23)C(=O)N[C@@H](CCCCN)C(=O)N[C@@H]([C@@H](C)O)C(=O)N1)C(N)=O [Woc4D, Dtyr-Dtyr-Dtyr-Dtyr-cyclo(Cys-Phe-DTrp-Lys-Thr-Cys)-Thr-NH2] (H-[dY][dY][dY][dY]CF[dW]KTCT-NH2; disulfide 5-10; N-terminus assumed)
[1]; Oxygen + Woc4D 50
  Blood vessel growth subscore, median: 0
  Blood vessel tortuosity subscore, median: 1
  Hemorrhage subscore, median: 1
[1]; Room air + Woc4D 50
  Blood vessel growth subscore, median (25th, 75th quartile): 0 (0, 0)
  Blood vessel tortuosity subscore, median (25th, 75th quartile): 0 (0, 0)
  Blood vessel tufts subscore, median (25th, 75th quartile): 0 (0, 0)
  Central vasoconstriction subscore, median (25th, 75th quartile): 0 (0, 0)
  Extra retinal neovascularization subscore, median (25th, 75th quartile): 0 (0, 0)
  Hemorrhage subscore, median (25th, 75th quartile): 0 (0, 0)
[1]
  retinal neovascularization: inhibited retinal neovascularization in an equally effective manner
[1]; oxygen exposed, Woc4D treated animal
  retinal vascular pathology in retinal whole mount (FIG. 3): less retinal vascular pathology
[1]; Woc4D 20 μg kg^−1 day^−1 P12-P16
  median total retinopathy score: 6(3,7)
[2]; oxygen + Woc4D 50 μg kg^−1 day^−1 P12-P16
  oxygen stimulated GH mRNA: markedly reduced
[3]
  growth as measured by animal weight: unaffected
SSTR2 [4]
  affinity of interaction with SSTR2: high affinity

## C[C@@H](O)[C@@H]1NC(=O)[C@H](CCCCN)NC(=O)[C@@H](Cc2c[nH]c3ccccc23)NC(=O)[C@H](Cc2ccccc2)NC(=O)[C@@H](NC(=O)[C@H](N)Cc2ccccc2)CSSC[C@@H](C(=O)N[C@H](CO)[C@@H](C)O)NC1=O [octreotide, D-Phe-Cys-Phe-D-Trp-Lys-Thr-Cys Thr(ol)]
[1]; Oxygen + oct 20 bid
  Blood vessel growth subscore, median: 0
  Blood vessel tufts subscore, median: decreased blood vessel tufts; also recorded: improvement
  Central vasoconstriction subscore, median: 1
  Extra retinal neovascularization subscore, median: decreased extra-retinal neovascularization; also recorded: improvement
[1]; Room air + oct 20 bid
  Blood vessel growth subscore, median (25th, 75th quartile): 0 (0, 0)
  Blood vessel tortuosity subscore, median (25th, 75th quartile): 0 (0, 0)
  Blood vessel tufts subscore, median (25th, 75th quartile): 0 (0, 0)
  Central vasoconstriction subscore, median (25th, 75th quartile): 0 (0, 0)
  Extra retinal neovascularization subscore, median (25th, 75th quartile): 0 (0, 0)
  Hemorrhage subscore, median (25th, 75th quartile): 0 (0, 0)
[1]
  retinal neovascularization: inhibited retinal neovascularization in an equally effective manner
  median total retinopathy score [median(25th, 75th quartile)]: significant improvement
[1]; octreotide 10 μg kg^−1 bid P12-P16
  median total retinopathy score: 6(3,7)
[1]; listed as octreoride
  median total retinopathy score [median(25th, 75th quartile)]: 3.5(2.9, 4.3)
[2]; oxygen + octreotide 20 μg kg^−1 bid P12-P16
  oxygen stimulated GH mRNA: markedly reduced
[3]
  growth as measured by animal weight: unaffected
SSTR2 [5]
  receptor selectivity of stimulation: effective in stimulating SSTR2 to the virtual exclusion of the other receptors
